Measured values reported in patent publication US20120225062A1 (priority 2011, published 2012).

Key:
Pim 2 = Pim 2 (Homo sapiens, UniProt Q9P1W9); experiment: Pim 2 AlphaScreen assay (high ATP)
Pim 3 = Pim 3 (Homo sapiens, UniProt Q86V86); experiment: Pim 3 AlphaScreen assay (high ATP)
[1] = system: KMS11 (human myeloma cell line); experiment: Cell Proliferation Assay (CellTiter-Glo, 3 days); assay type: cell-based; conditions: KMS-11, 72 h, KMS11-luc cells
Outline: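 KMS11 myeloma cells, 2000 per well in IMDM with 10% FBS, exposed to compound for 3 days at 37° C. Viability read by CellTiter-Glo luminescence; EC50 derived.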

Pim 1 = Pim 1 (Homo sapiens, UniProt P11309); experiment: Pim 1 AlphaScreen assay (high ATP)
Chain of Pim 1 (P11309 whole entry): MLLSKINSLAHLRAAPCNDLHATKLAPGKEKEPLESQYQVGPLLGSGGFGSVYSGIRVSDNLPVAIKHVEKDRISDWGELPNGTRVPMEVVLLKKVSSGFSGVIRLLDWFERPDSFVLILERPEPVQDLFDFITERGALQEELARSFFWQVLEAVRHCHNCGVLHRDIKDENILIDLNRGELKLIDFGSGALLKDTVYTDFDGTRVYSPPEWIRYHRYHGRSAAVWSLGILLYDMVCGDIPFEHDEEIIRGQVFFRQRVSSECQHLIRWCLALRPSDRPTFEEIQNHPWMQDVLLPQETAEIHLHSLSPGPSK

Chain of Pim 2 (Q9P1W9 whole entry): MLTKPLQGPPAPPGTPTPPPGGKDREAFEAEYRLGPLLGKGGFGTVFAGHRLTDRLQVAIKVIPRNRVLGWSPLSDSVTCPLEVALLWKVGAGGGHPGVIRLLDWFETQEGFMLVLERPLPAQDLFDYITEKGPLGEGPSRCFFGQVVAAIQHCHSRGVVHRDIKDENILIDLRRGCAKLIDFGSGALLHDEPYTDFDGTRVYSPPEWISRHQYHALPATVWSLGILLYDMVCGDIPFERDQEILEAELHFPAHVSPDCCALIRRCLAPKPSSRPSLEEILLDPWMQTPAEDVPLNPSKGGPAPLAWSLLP

| SMILES | IC50 (Pim 2) [nM] | IC50 (Pim 3) [nM] | EC50 [1] [nM] | IC50 (Pim 1) [nM] |
| --- | --- | --- | --- | --- |
| C[C@H]1C[C@@H](c2ccncc2NC(=O)c2ccc(F)c(-c3c(F)cc(OC4CCOC4)cc3F)n2)C[C@@H](N)[C@@H]1O (stereo in doubt) [Example 69, N-(4-((1R,3R,4R,5S)-3-amino-4-hydroxy-5-methylcyclohexyl)pyridin-3-yl)-6-(2,6-difluoro-4-((R)-tetrahydrofuran-3-yloxy)phenyl)-5-fluoropicolinamide] | 2.38 | 0.89 | 60 | 0.03 |
| C[C@H]1C[C@@H](c2ccncc2NC(=O)c2ccc(F)c(-c3c(F)cc(OC4CCOC4)cc3F)n2)C[C@@H](N)[C@@H]1O (stereo in doubt) [Example 70, N-(4-((1R,3R,4R,5S)-3-amino-4-hydroxy-5-methylcyclohexyl)pyridin-3-yl)-6-(2,6-difluoro-4-((S)-tetrahydrofuran-3-yloxy)phenyl)-5-fluoropicolinamide] | 4.01 | 1.15 | 68 | 0.04 |
| C[C@@H]1C[C@H](N)C[C@H](c2ccncc2NC(=O)c2ccc(F)c(-c3c(F)cc(OC4CCOC4)cc3F)n2)C1 (stereo in doubt) [Example 71, N-(4-((1R,3S,5S)-3-amino-5-methylcyclohexyl)pyridin-3-yl)-6-(2,6-difluoro-4-((R)-tetrahydrofuran-3-yloxy)phenyl)-5-fluoropicolinamide] | 2.21 | 0.97 | 48 | 0.02 |
| C[C@@H]1C[C@H](N)C[C@H](c2ccncc2NC(=O)c2ccc(F)c(-c3c(F)cc(OC[C@@H](O)CO)cc3F)n2)C1 [Example 3, N-(4-((1R,3S,5S)-3-amino-5-methylcyclohexyl)pyridin-3-yl)-6-(4-((S)-2,3-dihydroxypropoxy)-2,6-difluorophenyl)-5-fluoropicolinamide] | 1.89 | 0.55 | 53 | 0.03 |
| C[C@@H]1C[C@H](N)C[C@H](c2ccncc2NC(=O)c2ccc(F)c(-c3c(F)ccc(OC[C@H](O)CO)c3F)n2)C1 [Example 9, N-(4-((1R,3S,5S)-3-amino-5-methylcyclohexyl)pyridin-3-yl)-6-(3-((R)-2,3-dihydroxypropoxy)-2,6-difluorophenyl)-5-fluoropicolinamide] | 3.97 | 1.09 | 72 | 0.04 |
| C[C@@H]1C[C@H](N)C[C@H](c2ccncc2NC(=O)c2ccc(F)c(-c3c(F)ccc(OC[C@@H](O)CO)c3F)n2)C1 [Example 10, N-(4-((1R,3S,5S)-3-amino-5-methylcyclohexyl)pyridin-3-yl)-6-(3-((S)-2,3-dihydroxypropoxy)-2,6-difluorophenyl)-5-fluoropicolinamide] | 4.96 | 0.95 | 126 | 0.03 |
| COCCOc1cc(F)c(-c2nc(C(=O)Nc3cnccc3[C@@H]3C[C@H](C)C[C@H](N)C3)ccc2F)c(F)c1 [Example 12, N-(4-((1R,3S,5S)-3-amino-5-methylcyclohexyl)pyridin-3-yl)-6-(2,6-difluoro-4-(2-methoxyethoxy)phenyl)-5-fluoropicolinamide] | 2.91 | 1.39 | 120 | 0.04 |
| COCCOc1ccc(F)c(-c2nc(C(=O)Nc3cnccc3[C@@H]3C[C@H](C)C[C@H](N)C3)ccc2F)c1F [Example 13, N-(4-((1R,3S,5S)-3-amino-5-methylcyclohexyl)pyridin-3-yl)-6-(2,6-difluoro-3-(2-methoxyethoxy)phenyl)-5-fluoropicolinamide] | 9.36 | 1.27 | 187 | 0.04 |
| COc1cc(F)c(-c2nc(C(=O)Nc3cnccc3N3C[C@@H](N)[C@H](O)[C@@H](C)C3)ccc2F)c(F)c1 [Example 15, N-(4-((3R,4R,5S)-3-amino-4-hydroxy-5-methylpiperidin-1-yl)pyridin-3-yl)-6-(2,6-difluoro-4-methoxyphenyl)-5-fluoropicolinamide] | 1.14 | 0.35 | 21 | 0.02 |
| C[C@H]1CN(c2ccncc2NC(=O)c2ccc(F)c(-c3c(F)cc(S(C)(=O)=O)cc3F)n2)C[C@@H](N)[C@@H]1O [Example 16, N-(4-((3R,4R,5S)-3-amino-4-hydroxy-5-methylpiperidin-1-yl)pyridin-3-yl)-6-(2,6-difluoro-4-(methylsulfonyl)phenyl)-5-fluoropicolinamide] | 2.07 | 2.66 | 37 | 0.08 |
| COCCOc1ccc(F)c(-c2nc(C(=O)Nc3cnccc3N3C[C@@H](N)[C@H](O)[C@@H](C)C3)ccc2F)c1F [Example 17, N-(4-((3R,4R,5S)-3-amino-4-hydroxy-5-methylpiperidin-1-yl)pyridin-3-yl)-6-(2,6-difluoro-3-(2-methoxyethoxy)phenyl)-5-fluoropicolinamide] | 1.92 | 0.35 | 13 | 0.03 |
| COCCOc1ccc(F)c(-c2nc(C(=O)Nc3cnccc3[C@H]3C[C@@H](N)[C@H](O)[C@@H](C)C3)ccc2F)c1F [Example 18, N-(4-((1R,3R,4R,5S)-3-amino-4-hydroxy-5-methylcyclohexyl)pyridin-3-yl)-6-(2,6-difluoro-3-(2-methoxyethoxy)phenyl)-5-fluoropicolinamide] | 32.3 | 2.93 | 201 | 0.13 |
| CCOc1cc(F)c(-c2nc(C(=O)Nc3cnccc3N3C[C@@H](N)[C@H](O)[C@@H](C)C3)ccc2F)c(F)c1 [Example 20, N-(4-((3R,4R,5S)-3-amino-4-hydroxy-5-methylpiperidin-1-yl)pyridin-3-yl)-6-(4-ethoxy-2,6-difluorophenyl)-5-fluoropicolinamide] | 0.97 | 0.29 | 7 | 0.02 |
| C[C@H]1CN(c2ccncc2NC(=O)c2ccc(F)c(-c3c(F)cc(OCCO)cc3F)n2)C[C@@H](N)[C@@H]1O [Example 21, N-(4-((3R,4R,5S)-3-amino-4-hydroxy-5-methylpiperidin-1-yl)pyridin-3-yl)-6-(2,6-difluoro-4-(2-hydroxyethoxy)phenyl)-5-fluoropicolinamide] | 1.19 | 0.34 | 13 | 0.02 |
| COC(C)(C)c1cc(F)c(-c2nc(C(=O)Nc3cnccc3[C@H]3C[C@@H](N)[C@H](O)[C@@H](C)C3)c(N)cc2F)c(F)c1 [Example 114, 3-amino-N-(4-((1R,3R,4R,5S)-3-amino-4-hydroxy-5-methylcyclohexyl)pyridin-3-yl)-6-(2,6-difluoro-4-(2-methoxypropan-2-yl)phenyl)-5-fluoropicolinamide] | 1.37 | 1.29 |  | 0.04 |
| C[C@H]1CN(c2ccncc2NC(=O)c2nc(-c3c(F)cc(OC4CCOCC4)cc3F)c(F)cc2N)C[C@@H](N)[C@@H]1O [Example 115, 3-amino-N-(4-((3R,4R,5S)-3-amino-4-hydroxy-5-methylpiperidin-1-yl)pyridin-3-yl)-6-(2,6-difluoro-4-(tetrahydro-2H-pyran-4-yloxy)phenyl)-5-fluoropicolinamide] | 0.66 | 0.12 |  | 0.01 |
| C[C@H]1CN(c2ccncc2NC(=O)c2ccc(F)c(-c3c(F)cc(OC4CCOCC4)cc3F)n2)C[C@@H](N)[C@@H]1O [Example 116, N-(4-((3R,4R,5S)-3-amino-4-hydroxy-5-methylpiperidin-1-yl)pyridin-3-yl)-6-(2,6-difluoro-4-(tetrahydro-2H-pyran-4-yloxy)phenyl)-5-fluoropicolinamide] | 0.58 | 0.2 |  | 0.01 |
| C[C@H]1CN(c2ccncc2NC(=O)c2ccc(F)c(-c3c(F)cc(OC4COC4)cc3F)n2)C[C@@H](N)[C@@H]1O [Example 117, N-(4-((3R,4R,5S)-3-amino-4-hydroxy-5-methylpiperidin-1-yl)pyridin-3-yl)-6-(2,6-difluoro-4-(oxetan-3-yloxy)phenyl)-5-fluoropicolinamide] | 0.65 | 0.16 |  | 0.01 |
| COCCOc1cc(F)c(-c2nc(C(=O)Nc3cnccc3[C@@H]3C[C@H](C)C[C@H](N)C3)c(N)cc2F)c(F)c1 [Example 118, 3-amino-N-(4-((1R,3S,5S)-3-amino-5-methylcyclohexyl)pyridin-3-yl)-6-(2,6-difluoro-4-(2-methoxyethoxy)phenyl)-5-fluoropicolinamide] | 1.08 | 0.29 |  | 0.01 |
| CCOc1ccc(F)c(-c2nc(C(=O)Nc3cnccc3[C@@H]3C[C@H](C)C[C@H](N)C3)ccc2F)c1F [Example 213, N-(4-((1R,3S,5S)-3-amino-5-methylcyclohexyl)pyridin-3-yl)-6-(3-ethoxy-2,6-difluorophenyl)-5-fluoropicolinamide] | 8.92 | 1.45 |  | 0.06 |
| CCOc1cc(F)c(-c2nc(C(=O)Nc3cnccc3[C@@H]3C[C@H](C)C[C@H](N)C3)ccc2F)c(F)c1 [Example 225, N-(4-((1R,3S,5S)-3-amino-5-methylcyclohexyl)pyridin-3-yl)-6-(4-ethoxy-2,6-difluorophenyl)-5-fluoropicolinamide] | 1.78 | 0.51 |  | 0.02 |
| CCOc1cc(F)c(-c2nc(C(=O)Nc3cnccc3[C@H]3C[C@@H](N)[C@H](O)[C@@H](C)C3)ccc2F)c(F)c1 [Example 226, N-(4-((1R,3R,4R,5S)-3-amino-4-hydroxy-5-methylcyclohexyl)pyridin-3-yl)-6-(4-ethoxy-2,6-difluorophenyl)-5-fluoropicolinamide] | 3.51 | 0.75 |  | 0.04 |
